| melting point | Compound |
| --- | --- |
| 102 to 104 °C | COc1cc(CC(=O)NC(CC(C)C)c2cc(CC(NC(=O)c3c(Cl)cccc3Cl)C(=O)O)on2)ccc1NC(=O)Nc1ccccc1C (centres unmarked) [Example 25, 2-(2,6-Dichloro-benzoylamino)-3-[3-(1-{2-[3-methoxy-4-(3-o-tolyl-ureido)-phenyl]-acetylamino}-3-methyl-butyl)-isoxazol-5-yl]-propionic acid] |
| 123 to 125 °C | COc1cc(CC(=O)NC(CC(C)C)c2cc(CC(NC(C)=O)C(=O)O)on2)ccc1NC(=O)Nc1ccccc1C (centres unmarked) [Example 27, 2-acetylamino-3-[3-(1-{2-[3-methoxy-4-(3-o-tolyl-ureido)-phenyl]-acetylamino}-3-methyl-butyl)-isoxazol-5-yl]-propionic acid] |

From US6903128B2, “Non-peptidyl inhibitors of VLA-4 dependent cell binding useful in treating inflammatory, autoimmune, and respiratory diseases” (Pfizer Inc, priority 1999, dated 2005)
